We go through 10 compounds from ChEMBL document CHEMBL1134974, “Diaza- and triazachrysenes: potent topoisomerase-targeting agents with exceptional antitumor activity against the human tumor xenograft, MDA-MB-435” (Bioorg Med Chem Lett, 2002).

For assay [1], the target named is T1, DNA topoisomerase 1 (Homo sapiens) (UniProt P11387).
T1 sequence (whole entry): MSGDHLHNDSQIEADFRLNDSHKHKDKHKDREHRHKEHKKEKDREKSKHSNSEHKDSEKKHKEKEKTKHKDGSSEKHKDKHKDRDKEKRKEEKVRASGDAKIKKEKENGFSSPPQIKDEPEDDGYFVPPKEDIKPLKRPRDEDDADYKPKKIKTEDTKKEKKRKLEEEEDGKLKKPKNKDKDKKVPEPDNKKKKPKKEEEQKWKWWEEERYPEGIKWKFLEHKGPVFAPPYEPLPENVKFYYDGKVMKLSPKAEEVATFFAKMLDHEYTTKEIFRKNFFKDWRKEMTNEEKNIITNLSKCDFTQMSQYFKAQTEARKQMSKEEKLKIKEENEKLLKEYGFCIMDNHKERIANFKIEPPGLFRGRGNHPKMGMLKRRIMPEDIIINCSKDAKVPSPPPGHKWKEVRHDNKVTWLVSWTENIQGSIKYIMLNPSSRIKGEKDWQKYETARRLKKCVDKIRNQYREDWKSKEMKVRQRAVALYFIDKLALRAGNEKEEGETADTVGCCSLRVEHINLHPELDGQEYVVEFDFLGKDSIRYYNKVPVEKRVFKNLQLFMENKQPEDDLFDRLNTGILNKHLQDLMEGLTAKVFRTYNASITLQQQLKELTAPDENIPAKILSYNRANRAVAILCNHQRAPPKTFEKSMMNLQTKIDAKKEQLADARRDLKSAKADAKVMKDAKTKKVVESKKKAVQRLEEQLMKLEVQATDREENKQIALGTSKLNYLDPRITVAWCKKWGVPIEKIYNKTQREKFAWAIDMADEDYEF
Put plainly: TOP-1 mediated DNA cleavage measured as effective concentration relative to topotecan = 1. Format: functional.

The test system of assay [2] is RPMI 8402. Nature of the assay: Cytotoxicity using camptothecin-resistant variant of RPM18402 (CPT-K5) possessing functional, but mutant TOP-1. The conditions noted are these: Homo sapiens. Format: cell-based.
The subject of assay [3] is RPMI 8402. Nature of the assay: Cytotoxicity against human lymphoblast tumor cell line RPM18402. The class given is functional, cell-based.
For assay [4], the target named is DNA topoisomerase II (Homo sapiens) (UniProt P11388+Q02880). Nature of the assay: TOP-2 mediated DNA cleavage measured as effective concentration relative to VM26. The class given is functional.
Assay [5] has as its system Mus musculus. Nature of the assay: In vivo antitumor activity in NCR-nude-nude mice inoculated with 1.2 E6 -1.5 E6 MDA-MB-435 cells after day 7 with an average dose of 0.78 mg/mouse (po). The class given is functional.
The subject of assay [6] is Mus musculus. Nature of the assay: In vivo antitumor activity in NCR-nude-nude mice inoculated with 1.2 E6 -1.5 E6 MDA-MB-435 cells after day 31 with an average dose of 0.78 mg/mouse (po). Format: functional.
The test system of assay [7] is Mus musculus. Put plainly: In vivo antitumor activity in NCR-nude-nude mice inoculated with 1.2 E6 -1.5 E6 MDA-MB-435 cells after day 21 with an average dose of 0.78 mg/mouse(po). Format: functional.
In assay [8] the test system is Mus musculus. Nature of the assay: In vivo antitumor activity in NCR-nude-nude mice inoculated with 1.2 E6 -1.5 E6 MDA-MB-435 cells after day 31 with an average dose of 0.73 mg/mouse (ip). Format: functional.
Assay [9] relates to Mus musculus. Nature of the assay: In vivo antitumor activity in NCR-nude-nude mice inoculated with 1.2 E6 -1.5 E6 MDA-MB-435 cells after day 21 with an average dose of 0.73 mg/mouse (ip). The class given is functional.
For assay [10], the system named is Mus musculus. Put plainly: In vivo antitumor activity in NCR-nude-nude mice inoculated with 1.2 E6 -1.5 E6 MDA-MB-435 cells after day 7 with an average dose of 0.73 mg/mouse (ip). The class given is functional.
In assay [11] the test system is Mus musculus. Nature of the assay: In vivo antitumor activity in NCR-nude-nude mice inoculated with 1.2 E6 -1.5 E6 MDA-MB-435 cells after day 13 with an average dose of 0.78 mg/mouse (po). The class given is functional.
The test system of assay [12] is Mus musculus. Nature of the assay: In vivo antitumor activity in NCR-nude-nude mice inoculated with 1.2 E6 -1.5 E6 MDA-MB-435 cells after day 13 with an average dose of 0.73 mg/mouse (ip). The class given is functional.
In assay [13] the test system is Mus musculus. Put plainly: In vivo antitumor activity in NCR-nude-nude mice inoculated with 1.2 E6 -1.5 E6 MDA-MB-435 cells; after day 31 with an average dose of 0.27 mg/mouse (po). The class given is functional.
The subject of assay [14] is Mus musculus. Nature of the assay: In vivo antitumor activity in NCR-nude-nude mice inoculated with 1.2 E6 -1.5 E6 MDA-MB-435 cells; after day 31 with an average dose of 0.22 mg/mouse (ip). Format: functional.
Assay [15] relates to Mus musculus. Nature of the assay: In vivo antitumor activity in NCR-nude-nude mice inoculated with 1.2 E6 -1.5 E6 MDA-MB-435 cells; after day 13 with an average dose of 0.27 mg/mouse (po). The class given is functional.
For assay [16], the system named is Mus musculus. Put plainly: In vivo antitumor activity in NCR-nude-nude mice inoculated with 1.2 E6 -1.5 E6 MDA-MB-435 cells; after day 7 with an average dose of 0.27 mg/mouse (po). The class given is functional.
Assay [17] relates to Mus musculus. Nature of the assay: In vivo antitumor activity in NCR-nude-nude mice inoculated with 1.2 E6 -1.5 E6 MDA-MB-435 cells; after day 21 with an average dose of 0.27 mg/mouse (po). The class given is functional.
Assay [18] has as its system Mus musculus. Put plainly: In vivo antitumor activity in NCR-nude-nude mice inoculated with 1.2 E6 -1.5 E6 MDA-MB-435 cells; after day 21 with an average dose of 0.22 mg/mouse (ip). Format: functional.
The test system of assay [19] is Mus musculus. Put plainly: In vivo antitumor activity in NCR-nude-nude mice inoculated with 1.2 E6 -1.5 E6 MDA-MB-435 cells; after day 7 with an average dose of 0.22 mg/mouse (ip). The class given is functional.
Assay [20] has as its system Mus musculus. Nature of the assay: In vivo antitumor activity in NCR-nude-nude mice inoculated with 1.2 E6 -1.5 E6 MDA-MB-435 cells; after day 13 with an average dose of 0.22 mg/mouse (ip). Format: functional.
Assay [21] deals with Mus musculus. Nature of the assay: In vivo antitumor activity in NCR-nude-nude mice inoculated with 1.2 E6 -1.5 E6 MDA-MB-435 cells; after day 31 with an average dose of 13.88 mg/mouse (ip). Format: functional.
Assay [22] concerns Mus musculus. Put plainly: In vivo antitumor activity in NCR-nude-nude mice inoculated with 1.2 E6 -1.5 E6 MDA-MB-435 cells; after day 21 with an average dose of 13.88 mg/mouse (ip). The class given is functional.
For assay [23], the system named is Mus musculus. Nature of the assay: In vivo antitumor activity in NCR-nude-nude mice inoculated with 1.2 E6 -1.5 E6 MDA-MB-435 cells; after day 13 with an average dose of 13.88 mg/mouse (ip). Format: functional.
Assay [24] deals with Mus musculus. Put plainly: In vivo antitumor activity in NCR-nude-nude mice inoculated with 1.2 E6 -1.5 E6 MDA-MB-435 cells; after day 7 with an average dose of 13.88 mg/mouse (ip). The class given is functional.

As for `COc1cc2c(=O)n(C(C)CN(C)C)c3c4cc5c(cc4nnc3c2cc1OC)OCO5` (configuration not stated), the REC in assay [1] is 1000; in assay [4], more than 100. Also, the IC50 (commonly the concentration that gives 50% inhibition) in the assay with RPMI 8402 [2] was determined as 3600 nM; in the assay with RPMI 8402 [3] it was 260 nM.

In the case of `COc1cc2c(=O)n(CC3CCCO3)c3c4cc5c(cc4nnc3c2cc1OC)OCO5` (configuration not stated), the results for the REC in assay [1] and in assay [4] were 30 and more than 100, respectively. The figures for the IC50 in the assay with RPMI 8402 [2] and in the assay with RPMI 8402 [3] were more than 10000 nM and 10 nM, respectively.

As for `CCCCn1c(=O)c2cc(OC)c(OC)cc2c2nnc3cc4c(cc3c21)OCO4`, the figures for the REC in [1] and in [4] were 1 and more than 100, respectively. For the same compound, the IC50 with RPMI 8402 [2] is 10000 nM; in the assay on RPMI 8402 [3], 4 nM.

As for `COc1cc2c(=O)n(C(C)CN(C)C)c3c4cc5c(cc4ncc3c2cc1OC)OCO5` (configuration not stated), the REC was more than 1000 in [1] and more than 100 in [4]. The IC50 in the assay on RPMI 8402 [2] worked out at 3400 nM; with RPMI 8402 [3] it was 570 nM.

In the case of `COc1cc2c(=O)n(CC3CCCO3)c3c4cc5c(cc4ncc3c2cc1OC)OCO5` (configuration not stated), the REC is 200 in [1] and more than 100 in assay [4]. Moreover, the IC50 in the assay on RPMI 8402 [2] was more than 10000 nM; with RPMI 8402 [3], 150 nM.

Take `COc1cc2c(=O)n(CCN(C)C)c3c4cc5c(cc4ncc3c2cc1OC)OCO5`: the Average tumor volume in the assay with Mus musculus [5] stood at 159 mm**3; in the assay with Mus musculus [6], 62 mm**3; with Mus musculus [7] it was 99 mm**3; in the assay with Mus musculus [8] it was 40 mm**3; in the assay on Mus musculus [9] it was 65 mm**3; with Mus musculus [10], 123 mm**3. Also, the Average tumor volume with Mus musculus [11] is on record as 148 mm**3; in the assay on Mus musculus [12], 84 mm**3. Besides, the figures for the IC50 with RPMI 8402 [2] and in the assay on RPMI 8402 [3] were 900 nM and 2 nM, respectively. In assay [4], this compound returned an REC of more than 100.

Regarding `COc1cc([C@@H]2c3cc4c(cc3[C@@H](O[C@@H]3O[C@@H]5CO[C@@H](c6cccs6)O[C@H]5[C@H](O)[C@H]3O)[C@H]3COC(=O)[C@H]23)OCO4)cc(OC)c1O` [TENIPOSIDE], the results for the REC in [1] and in [4] were more than 1000 and more than 100, respectively. Also, the IC50 in the assay on RPMI 8402 [2] was 280 nM; in the assay on RPMI 8402 [3], 220 nM.

On to `COc1cc2c(=O)n(CCN(C)C)c3c4cc5c(cc4nnc3c2cc1OC)OCO5`, for which the REC in assay [1] is 0.3; in assay [4], more than 100. In addition, the Average tumor volume in the assay with Mus musculus [13] turned out to be 200 mm**3; with Mus musculus [14] it was 403 mm**3; in the assay with Mus musculus [15] it was 183 mm**3; in the assay on Mus musculus [16], 154 mm**3; with Mus musculus [17], 207 mm**3; in the assay with Mus musculus [18] it was 252 mm**3. In addition, the Average tumor volume in the assay with Mus musculus [19] was 167 mm**3; in the assay on Mus musculus [20], 211 mm**3. Also, the IC50 was 600 nM in the assay on RPMI 8402 [2] and 1 nM in the assay with RPMI 8402 [3].

As to `CCc1c2c(nc3ccc(OC(=O)N4CCC(N5CCCCC5)CC4)cc13)-c1cc3c(c(=O)n1C2)CCC(=O)C3(O)CC` (configuration not stated), the Average tumor volume stood at 11 mm**3 in the assay with Mus musculus [21], 36 mm**3 in the assay on Mus musculus [22], 116 mm**3 with Mus musculus [23] and 118 mm**3 with Mus musculus [24]. In the assay on RPMI 8402 [2], this compound displayed an IC50 of more than 10000 nM. Further, the REC in assay [4] was more than 100.

As to `CC[C@@]1(O)C(=O)OCc2c1cc1n(c2=O)Cc2cc3c(CN(C)C)c(O)ccc3nc2-1` [TOPOTECAN], the results for the REC in [1] and in [4] were 1 and more than 100, respectively. In addition, the IC50 in the assay with RPMI 8402 [2] is more than 10000 nM; in the assay with RPMI 8402 [3], 12 nM.
